# Assay results from patent US20100152102A1, “USE OF SO[…] ONE OF ITS ANALOGUES FOR PREPARING A […] TO REGULATE THE OVARIAN […] IN NON-[…]” (Preglem S.A., priority 2003, published 2010).
# [ ]: non-standard residue; d: D form. Tic = O=C(O)[C@@H]1Cc2ccccc2CN1; Abu = CC[C@H](N)C(=O)O
# Experiments:
# [1] = test system: primordial follicles of ewe ovarian cortex; test: culture of ovarian cortex fragments of adult ewes for 10 days; format: cell-based; conditions: 10 days culture; for start of growth of the primordial follicles: vs control (FIG. 3)
# Protocol: Ovaries of adult ewes are collected immediately after slaughter. The ovaries are placed in an organ transport medium without serum (X-vivo, Bio Whittaker, Walkersville, Md., USA) at 10° C. and transported to the laboratory. Approximately 1 h after removal, the cortex is isolated from the medulla then fractionated into slices of 2 mm thickness (1 cm^2, average weight of 212 mg) after rinsing in new X-vivo. The cortex fragments are cultured in an oven under 5% oxygen for 10 days in well plates in the presence of DMEM. The medium is changed every 2 days.
# The procedure used is the same as for Example 1, except that the somatostatin is replaced with one of its agonist analogues, namely the synthetic peptide of formula c[Tic-Tyr-DTrp-Lys-Abu-Phe] (hereafter AG1 peptide).
# The procedure used is the same as for Example 1, except that the somatostatin is replaced by one of its antagonist analogues, namely the synthetic peptide of formula Cpa-c(DCys-3-Pal-DTrp-NMeLys-Thr-Cys)-2-Nal-NH2 (hereafter ANT1 peptide).
# antral follicles = test: envisaged case: patient with polycystic ovary syndrome treated with lanreotide acetate; format: in vivo, women; conditions: 120 mg/month, 4th month of treatment
compound,measurement,setting,value
cyclo([Tic]Y[dW]K[Abu]F) [AG1 peptide],number of primary follicles,"[1]; AG1 peptide 10^−9M, FIG. 4",absence of increase
same,number of primordial follicles,"[1]; AG1 peptide 10^−9M, FIG. 4",maintenance over time
same,start of growth of the primordial follicles,"[1]; AG1 peptide 10^−9M, FIG. 4",very significantly inhibits
CC(C)[C@@H]1NC(=O)[C@H](CCCCN)NC(=O)[C@@H](Cc2c[nH]c3ccccc23)NC(=O)[C@H](Cc2ccc(O)cc2)NC(=O)[C@@H](NC(=O)[C@H](N)Cc2ccc3ccccc3c2)CSSC[C@@H](C(=O)N[C@H](C(N)=O)[C@@H](C)O)NC1=O [lanreotide acetate],ultrasound of the ovaries: ovarian volume and number of antral follicles,antral follicles,reduction in ovarian volume and in the number of antral follicles
Cpa-c(DCys-3-Pal-DTrp-NMeLys-Thr-Cys)-2-Nal-NH2 [ANT1 peptide],start of growth of the primordial follicles,"[1]; ANT1 peptide 10^−6M, FIG. 5",accentuates
